Data from PMC6718988, “Bioactivity and Bactericidal Mechanism of Histidine-Rich β-Hairpin Peptide Against Gram-Negative Bacteria” (International Journal of Molecular Sciences, 2019).
≈ marks a conversion by molar mass, not a printed value. Where two headings read alike, the source gives them in different places. Where a SMILES comes first, the peptide text is derived from it. Bridges are numbered along the chain shown (N, C = ends). [ ]: non-standard residue; d: D form. The star is where a group is joined. X1 = CC[C@H](C)CCCCC(=O)*; Dab = NCC[C@H](N)C(=O)O

What was measured:
E. coli UB1005 = assay: microbe, parasite or virus in culture
Protocol: (§1) The minimum inhibitory concentration (MIC) was measured using a broth microdilution method to determine the in vitro antimicrobial activity of the peptides. Bacteria were inoculated into MHB and incubated overnight at 37 °C until the bacteria were in log phase growth. Next, we corrected the bacterial concentration to approximately 1 × 10^5 CFU/mL using MHB. The peptides were added to 96-well plates containing 0.01% acetic acid and 0.2% bovine serum albumin at final concentrations ranging from 0.25 to 128 μM. After incubation at 37 °C for 24 h, the absorbance was measured at 492 nm using a microplate reader (Tecan GENios F129004, Tecan, Austria). Broth containing microbes and […] were used as positive and negative controls, respectively. The lowest peptide concentration with no increase in absorbance compared to that of the negative control was defined as the MIC. The experiments were independently performed three times.

S. epidermidis ATCC12228 = assay: microbe, parasite or virus in culture
Protocol: as §1

E. coli K99 = assay: microbe, parasite or virus in culture
Protocol: as §1

S. pullorum C7913 = assay: microbe, parasite or virus in culture
Protocol: as §1

E. coli K88 = assay: microbe, parasite or virus in culture
Protocol: as §1

P. aeruginosa ATCC27853 = assay: microbe, parasite or virus in culture
Protocol: as §1

E. coli ATCC25922 = assay: microbe, parasite or virus in culture
Protocol: as §1

S. aureus ATCC29213 = assay: microbe, parasite or virus in culture
Protocol: as §1

[1] = tested on: methicillin-resistant S. aureus ATCC43300; assay: microbe, parasite or virus in culture
Protocol: as §1

[2] = tested on: Gram-positive and Gram-negative bacteria
Protocol: as §1

Gram-positive bacteria = tested on: Gram-positive bacteria
Protocol: as §1

Gram-negative bacteria = assay: MICs against Gram-negative strains (geometric mean, range); assay type: cell-based; conditions: for MBC (GM), geometric mean of MICs, Gram (−): Gram-negative strains, 256 μM used where no activity at 128 μM; for geometric mean MIC: read-out: MBC (GM), geometric mean of MICs, Gram (−)
Protocol: as §1

[3] = LPS binding assay (BODIPY-TR-cadaverine displacement); set-up: species or system E. coli; conditions: peptide concentration higher than 4 μM; 50 μg/mL LPS, 5 μg/mL BODIPY-TR cadaverine, Tris 50 mM pH 7.4; 100% = 10 μg/mL polymyxin B
Protocol: The abilities of the antimicrobial peptides to bind LPS were determined using the fluorescent dye BODIPY-TR-cadaverine (BC) substitution method. LPS (50 μg/mL) from E. coli O111:B4 was incubated with BC (5 μg/mL) in Tris buffer (50 mm, pH 7.4) for 4 h. Next, 50 μL of various concentrations of peptides (final concentration of 1–64 μM) and 50 μL of LPS-BC mixture were added to 96-well plates, and the fluorescence was measured using a fluorescence spectrophotometer (Infinite 200 pro, Tecan, China) at an excitation wavelength of 580 nm and an emission wavelength of 620 nm. Each test was performed three times. The values were converted to %∆F (AU) using the following equation:%ΔF (AU) = [(Fobs − F0)/(F100 − F0)] × 100 where Fobs is the fluorescence value measured in the presence of the peptide, F0 is the initial fluorescence of LPS with BC without the addition of peptides, F100 is the fluorescence value produced by adding 10 μg/mL polymyxin B.

[4] = tested on: human red blood cells (hRBCs); assay: Hemolytic activity; conditions: 1 h, OD 570 nm; for hemolysis rate: at the highest concentration (128 μM), 1% hRBC in PBS, 37 °C, 0.1% Triton X-100 positive control; for MHC, minimum hemolytic concentration: concentration causing 5% hemolysis of hRBC, 1% hRBC in PBS pH 7.4, 37 °C, repeated three times
Protocol: Briefly, collected human red blood cells (hRBCs) were washed three times with PBS (pH 7.4) and diluted to 1% in PBS. Next, equal volumes of blood cells were mixed with different peptide concentrations in 96-well plates followed by incubated at 37 °C for 1 h. The mixtures were centrifuged (1000 g, 5 min), and the supernatants were transferred to 96-well plates to measure the optical density (OD) at 570 nm. Untreated blood cells were used as negative controls, and 0.1% Triton X-100-treated blood cells were used as positive controls. The minimum peptide concentration corresponding to 5% hemolytic activity was defined as the minimal hemolytic concentration (MHC). These assays were independently repeated three times.

[5] = RP-HPLC retention time as measure of hydrophobicity; assay type: physicochemical; conditions: analytical Kromasil C18 column 4.6 mm × 250 mm, 5.0 μm, acetonitrile, flow 1.0 mL/min, used as measure of hydrophobicity
Protocol: The hydrophobicities of the peptides in solution were reliably mirrored by their high-performance liquid chromatography (HPLC)retention times. The retention times for peptide HI2, HW2, HV2, HF2, and PG-1 were 11.13, 10.55, 12.20, 18.06 and 12.56 min, respectively, indicating the following hydrophobic order: HF2 > PG-1 > HV2 > HI2 > HW2(Table 1).
The designed peptides were synthesized and purified by GL Biochem (Shanghai, China). Acetonitrile was used on an analytical Kromasil C18 column (4.6 mm × 250 mm, 5.0 μm, LC 3000, Beijing, China), and the purity of the peptides was determined to be greater than 95% via reversed-phase high-performance liquid chromatography (RP-HPLC) with a flow rate of 1.0 mL/min. The experimental molecular weights of the peptides were evaluated via ESI-MS analysis, and these values were very close to the calculated masses. Next, the peptides were dissolved in deionized water at a concentration of 2.56 mM, and the peptide solutions were stored at −20 °C.

[6] = E. coli K99, MHB, about 1 × 10^5 CFU/mL, 37 °C, 24 h, three independent experiments
[7] = E. coli K88, MHB, about 1 × 10^5 CFU/mL, 37 °C, 24 h, three independent experiments
[8] = all strains, 256 μM used where no activity at 128 μM
[9] = Gram-positive strains, 256 μM used where no activity at 128 μM
[10] = Staphylococcus epidermidis, ATCC12228, 24 h
[11] = Salmonella enterica, PULLORUM, 24 h
[12] = Pseudomonas aeruginosa, ATCC27853, 24 h
[13] = Escherichia coli, ATCC25922, 24 h
[14] = Staphylococcus aureus, ATCC29213, 24 h
[15] = Staphylococcus aureus, ATCC43300, 24 h

SMILES	MIC (E. coli K99; [6]) [µM]	MIC (E. coli K88; [7]) [µM]	MBC (GM), geometric mean of MICs, Gram (+,−) [2, 8] [µM]	MBC (GM), geometric mean of MICs, Gram (+) (Gram-positive bacteria; [9]) [µM]	MBC (GM), geometric mean of MICs, Gram (−) (Gram-negative bacteria) [µM]	MIC (E. coli UB1005; Escherichia coli, UB1005, 24 h) [µM]	MIC (S. epidermidis ATCC12228; [10]) [µM]	MIC (E. coli K99; Escherichia coli, K99, 24 h) [µM]	MIC (S. pullorum C7913; [11]) [µM]	MIC (E. coli K88; Escherichia coli, K88, 24 h) [µM]	MIC (P. aeruginosa ATCC27853; [12]) [µM]	MIC (E. coli ATCC25922; [13]) [µM]	MIC (S. aureus ATCC29213; [14]) [µM]	MIC [1, 15] [µM]	geometric mean MIC (Gram-negative bacteria) [µM]	LPS binding ability relative to binding activity of polymyxin B [3]	hemolysis rate [4] [%]	MHC, minimum hemolytic concentration [4] [µM]	MIC (E. coli UB1005; UB1005, 24 h) [µM]	MIC (S. epidermidis ATCC12228; ATCC12228, 24 h) [µM]	further results
CC[C@H](C)CCCCC(=O)N[C@@H](CCN)C(=O)N[C@H](C(=O)N[C@@H](CCN)C(=O)N[C@H]1CCNC(=O)[C@H]([C@@H](C)O)NC(=O)[C@H](CCN)NC(=O)[C@H](CCN)NC(=O)[C@H](CC(C)C)NC(=O)[C@@H](Cc2ccccc2)NC(=O)[C@H](CCN)NC1=O)[C@@H](C)O [Polymyxin B, polymyxin B] (X1-[Dab]T[Dab][Dab][Dab][dF]L[Dab][Dab]T; lactam 4-C (inferred); N-terminus assumed)	1 (≈ 1.2 µg/mL)	0.5 (≈ 0.602 µg/mL)	4	50.8	1.12																MIC (E. coli UB1005; E. coli UB1005, MHB, about 1 × 10^5 CFU/mL, 37 °C, 24 h, three independent experiments): 1 µM (≈ 1.2 µg/mL); MIC (S. epidermidis ATCC12228; S.epidermidis 12228, MHB, about 1 × 10^5 CFU/mL, 37 °C, 24 h, three independent experiments): 32 µM (≈ 38.5 µg/mL); MIC (S. pullorum C7913; S.pullorum C7913, MHB, about 1 × 10^5 CFU/mL, 37 °C, 24 h, three independent experiments): 1 µM (≈ 1.2 µg/mL); MIC (P. aeruginosa ATCC27853; P. auruginosa 27853, MHB, about 1 × 10^5 CFU/mL, 37 °C, 24 h, three independent experiments): 2 µM (≈ 2.41 µg/mL); MIC (E. coli ATCC25922; E. coli 25922, MHB, about 1 × 10^5 CFU/mL, 37 °C, 24 h, 0.25-128 μM, three independent experiments): 2 µM (≈ 2.41 µg/mL); MIC (S. aureus ATCC29213; S.aureus 29213, MHB, about 1 × 10^5 CFU/mL, 37 °C, 24 h, three independent experiments): 64 µM (≈ 77 µg/mL); MIC ([1]; S.aureus 43300 (methicillin-resistant), MHB, about 1 × 10^5 CFU/mL, 37 °C, 24 h, three independent experiments): 64 µM (≈ 77 µg/mL)
CNC(C)C1CCC(N)C(OC2C(N)CC(N)C(OC3OCC(C)(O)C(NC)C3O)C2O)O1 (centres unmarked) [Gentamicin]						0.5 (≈ 0.239 µg/mL)	1 (≈ 0.478 µg/mL)	0.5 (≈ 0.239 µg/mL)	1 (≈ 0.478 µg/mL)	1 (≈ 0.478 µg/mL)	1 (≈ 0.478 µg/mL)	1 (≈ 0.478 µg/mL)	1 (≈ 0.478 µg/mL)	8 (≈ 3.82 µg/mL)	0.79						
CC(C)(O/N=C(\C(=O)N[C@@H]1C(=O)N2C(C(=O)[O-])=C(C[n+]3ccccc3)CS[C@H]12)c1csc(N)n1)C(=O)O [Ceftazidime]						1 (≈ 0.547 µg/mL)	16 (≈ 8.75 µg/mL)	0.5 (≈ 0.273 µg/mL)	1 (≈ 0.547 µg/mL)	1 (≈ 0.547 µg/mL)	2 (≈ 1.09 µg/mL)	2 (≈ 1.09 µg/mL)	16 (≈ 8.75 µg/mL)	16 (≈ 8.75 µg/mL)	1.12						
N=C(N)NCCC[C@H](NC(=O)[C@H](CCCNC(=N)N)NC(=O)[C@H](Cc1c[nH]c2ccccc12)NC(=O)[C@H](Cc1c[nH]cn1)NC(=O)[C@H](Cc1c[nH]c2ccccc12)NC(=O)[C@H](Cc1c[nH]cn1)NC(=O)[C@H](Cc1c[nH]c2ccccc12)NC(=O)CNC(=O)[C@H]1CCCN1C(=O)[C@H](Cc1c[nH]c2ccccc12)NC(=O)[C@H](Cc1c[nH]cn1)NC(=O)[C@H](Cc1c[nH]c2ccccc12)NC(=O)[C@H](Cc1c[nH]cn1)NC(=O)[C@H](Cc1c[nH]c2ccccc12)NC(=O)[C@H](CCCNC(=N)N)NC(=O)[C@@H](N)CCCNC(=N)N)C(N)=O [HW2] (H-RRWHWHW[dP]GWHWHWRR-NH2; N-terminus assumed)	4 (≈ 9.85 µg/mL)	4 (≈ 9.85 µg/mL)	3.17	2.52	3.56											higher than 60%	15.58	8	2 (≈ 4.92 µg/mL)	2 (≈ 4.92 µg/mL)	MIC (S. pullorum C7913; C7913, 24 h): 2 µM (≈ 4.92 µg/mL); MIC (P. aeruginosa ATCC27853; ATCC27853, 24 h): 8 µM (≈ 19.7 µg/mL); MIC (E. coli ATCC25922; ATCC25922, 24 h): 4 µM (≈ 9.85 µg/mL); MIC (S. aureus ATCC29213; ATCC29213, 24 h): 4 µM (≈ 9.85 µg/mL); MIC ([1]; ATCC43300, 24 h): 2 µM (≈ 4.92 µg/mL); Retention Time [5]: 10.55 min
N=C(N)NCCC[C@H](NC(=O)[C@H](CCCNC(=N)N)NC(=O)[C@H](Cc1ccccc1)NC(=O)[C@H](Cc1c[nH]cn1)NC(=O)[C@H](Cc1ccccc1)NC(=O)[C@H](Cc1c[nH]cn1)NC(=O)[C@H](Cc1ccccc1)NC(=O)CNC(=O)[C@H]1CCCN1C(=O)[C@H](Cc1ccccc1)NC(=O)[C@H](Cc1c[nH]cn1)NC(=O)[C@H](Cc1ccccc1)NC(=O)[C@H](Cc1c[nH]cn1)NC(=O)[C@H](Cc1ccccc1)NC(=O)[C@H](CCCNC(=N)N)NC(=O)[C@@H](N)CCCNC(=N)N)C(N)=O [HF2] (H-RRFHFHF[dP]GFHFHFRR-NH2; N-terminus assumed)	4 (≈ 8.91 µg/mL)	2 (≈ 4.46 µg/mL)			8.00											higher than 60%	30.46	16	8 (≈ 17.8 µg/mL)	4 (≈ 8.91 µg/mL)	MIC (S. pullorum C7913; C7913, 24 h): 4 µM (≈ 8.91 µg/mL); MIC (P. aeruginosa ATCC27853; ATCC27853, 24 h): >128 µM; MIC (E. coli ATCC25922; ATCC25922, 24 h): 4 µM (≈ 8.91 µg/mL); MIC (S. aureus ATCC29213; ATCC29213, 24 h): 64 µM (≈ 143 µg/mL); MIC ([1]; ATCC43300, 24 h): 4 µM (≈ 8.91 µg/mL); MBC (GM), geometric mean of MICs, Gram (+,−) ([2]; 24 h): 8.64 µM; MBC (GM), geometric mean of MICs, Gram (+) (Gram-positive bacteria; 24 h): 10.08 µM; Retention Time [5]: 18.06 min
CN[C@H](CC(C)C)C(=O)N[C@H]1C(=O)N[C@@H](CC(N)=O)C(=O)N[C@H]2C(=O)N[C@H]3C(=O)N[C@H](C(=O)N[C@H](C(=O)O)c4cc(O)cc(O)c4-c4cc3ccc4O)[C@H](O)c3ccc(c(Cl)c3)Oc3cc2cc(c3O[C@@H]2O[C@H](CO)[C@@H](O)[C@H](O)[C@H]2O[C@H]2C[C@](C)(N)[C@H](O)[C@H](C)O2)Oc2ccc(cc2Cl)[C@H]1O [Vancomycin]						16 (≈ 23.2 µg/mL)	0.5 (≈ 0.725 µg/mL)	4 (≈ 5.8 µg/mL)	8 (≈ 11.6 µg/mL)	2 (≈ 2.9 µg/mL)	> 128	8 (≈ 11.6 µg/mL)	0.5 (≈ 0.725 µg/mL)	0.5 (≈ 0.725 µg/mL)	11.3						
